Laboratory results: PubChem BioAssay AID1508591

details: rat; liver microsomes; pH 7.4; 15.0 min; 1.0 µM

| SMILES | half-life [min] |
| --- | --- |
| Cc1ccc2oc(NC3=NC(c4[nH]ncc4Cl)C4=C(CCCC4=O)N3)nc2c1 (centres undefined) | 1.7 |
| Fc1cc(Nc2nc(-c3ccncc3)nc3ccccc23)ccc1OC(F)(F)F | > 30 |
| O=C1Nc2ccccc2/C1=C\c1ccc([N+](=O)[O-])cc1 | 4.92 |
| CN(C)CCOc1ccc(C(=C(CCCl)c2ccccc2)c2ccccc2)cc1 | > 30 |
| Cc1ccnc(NC(=S)N2CCN(c3cccc(C(F)(F)F)n3)CC2)c1 | 15 |
| COCC(C)NCc1cc2ccc(OC)cc2nc1N1CCN(c2ccc(F)cc2)CC1 (centres undefined) | 10.4 |
| CC(=O)c1c(C)[nH]c(C(=O)Nc2cccc([S+](=O)([O-])Nc3ccccn3)c2)c1C | > 30 |
| CCN1CCCC1CNCc1ccccc1 (centres undefined) | 2.5 |
| CN(C)CC(=O)NC1CCCc2c1cnn2-c1ccc(F)cc1F (centres undefined) | > 30 |
| O=C(Nc1nc(-c2ccccc2)cs1)c1ccncc1NS(=O)(=O)c1ccc(F)cc1 | 20 |
| Cc1nn2c(c1-c1ccccc1OCc1ccccc1)N(C(=O)Cc1ccc3c(c1)OCO3)CCC2 | 1.41 |
| CCOc1ccc(NC(=O)c2cccc(-n3cccc3)c2)cc1S(=O)(=O)N1CCOCC1 | 3.16 |
| Cc1ccc(S(=O)(=O)Nc2cnccc2C(=O)Nc2nc(-c3ccc(Cl)cc3)cs2)cc1 | > 30 |
| O=C(CNC(=O)c1cnccn1)NC1CCCc2c1[nH]c1ccc(Cl)cc21 (centres undefined) | > 30 |
| CC/C=C\CC1C(=O)CCC1CC(=O)OC (centres undefined) | > 30 |
| Cc1ccc(S(=O)(=O)Nc2cnccc2C(=O)Nc2cccc3ccccc23)cc1 | 5.6 |
| Fc1cc(Nc2nc(-c3ccncc3)nc3ccccc23)ccc1-c1cn[nH]c1 | 19 |
| Cc1ccc(C)n1-c1cccc(C(=O)O)c1 | 12 |
| O=C(Nc1ccc(N2CCN(C(=O)c3ccccc3F)CC2)cc1)c1cncc(Br)c1 | > 30 |
| CC(C)(C)C(=O)C(Oc1ccc(Cl)cc1)n1ccnc1 (centres undefined) | > 30 |

| SMILES | half-life [min] |
| --- | --- |
| Cc1ccc(-n2nc3c(=O)n(CCCC(=O)NCc4ccccc4F)nc(C)c3c2C)cc1 | 2.6 |
| COc1ccccc1-c1nc(NCc2cnc(C)cn2)c2ccccc2n1 | 10 |
| Cc1cccc2c1NC(=O)/C2=C/c1cc(Cl)c(O)c(Cl)c1 | 26 |
| O=C(Nc1ccc(Br)cc1)c1ccc(F)c(S(=O)(=O)NC2CCCCCC2)c1 | 3.66 |
| COc1ccc(C2c3c(oc4ccc(C)cc4c3=O)C(=O)N2CCCN2CCOCC2)cc1OC (centres undefined) | 7.59 |
| CC1=C(C(=O)Nc2nncs2)C(c2[nH]ncc2Cl)N=C(Nc2nc3ccccc3o2)N1 (centres undefined) | > 30 |
| CCOc1cc(CNc2ccc(O)cc2)ccc1OCc1ccc(Cl)cc1 | 3.84 |
| C[C@H]1[C@@H](CCC(=O)Nc2ccc(F)cc2)O[C@@H]2O[C@]3(C)CC[C@@H]4[C@H](C)CC[C@@H]1[C@@]24OO3 | 2 |
| O=S(=O)(Nc1nccs1)c1ccc(NCc2cccc(O)c2)cc1 | > 30 |
| CCOc1ccc(CCNC(=O)c2cc3cccnc3n2Cc2cccc(C)n2)cc1OCC | 1.7 |
| Cc1nn(CCc2nc(-c3ccc(OC(F)F)cc3)cs2)c2[nH]c(=O)cc(C(F)(F)F)c12 | 6.9 |
| Cc1ccc(S(=O)(=O)Nc2cc(Cl)ccc2C(=O)Nc2nc(-c3ccccc3)cs2)cc1 | 7.65 |
| Cc1ccc(S(=O)(=O)Nc2cnccc2C(=O)Nc2nc(-c3ccncc3)cs2)cc1 | 17 |
| COc1cccc(-n2nc(C(=O)O)cc2-c2ccc(C3CCCCC3)c(Cl)c2)c1 | > 30 |
| CSc1cccc(NC(=O)CC[C@H]2O[C@@H]3O[C@]4(C)CC[C@H]5[C@H](C)CC[C@@H]([C@@H]2C)[C@@]35OO4)c1 | 2.3 |
| CC(C)c1ccc(CC(=O)N2CCCc3ncc(C(=O)Nc4cccnc4)cc32)cc1 | 5.67 |
| CC1(C)CCC(CN2CCN(c3ccc(C(=O)NS(=O)(=O)c4ccc(NCC5CCOCC5)c([N+](=O)[O-])c4)c(Oc4cnc5[nH]ccc5c4)c3)CC2)=C(c2ccc(Cl)cc2)C1 | > 30 |
| O=C(c1ccc2c(c1)ncn2-c1ccc(C(F)(F)F)cc1)N1CCCCC1 | 7.6 |
| Cc1nnc2c3ccccc3nc(N3CCN(c4ccccc4)CC3)n12 | > 30 |
